For 42 compounds, IC50 results are on record in patent US12624034B2, “Non-covalent modifiers of AKT1 and uses thereof” (Terremoto Biosciences, Inc., priority 2023, dated 2026).

One assay concerns the target T1, AKT1 WT (Homo sapiens, UniProt P31749).
T1 construct: expressed in transfected cells; host or cells: HEK293
In words: Live cell AKT1 WT target engagement by NanoBRET competitive probe displacement in HEK293 cells. In kind it is binding. The note with it: 2 h at 37° C., read-out: AKT1 WT IC50. Background: Bioluminescence resonance energy transfer reports proximity on the nanometre scale.

Another assay deals with T2, AKT2 (Homo sapiens, UniProt P31751).
T2 construct: expressed in transfected cells; host or cells: HEK293
In words: Live cell AKT2 target engagement by NanoBRET competitive probe displacement in HEK293 cells. It counts as binding. The note with it: 2 h at 37° C., read-out: AKT2 IC50.

[1] abbreviates: NanoBRET live cell target engagement, HEK293 cells.
Where [2] appears, read: NanoBRET competitive probe displacement, live HEK293 cells.

SMILES strings stand for the structures. Like-named read-outs stand apart in the source and are kept apart here.

T1 sequence (P31749 whole entry): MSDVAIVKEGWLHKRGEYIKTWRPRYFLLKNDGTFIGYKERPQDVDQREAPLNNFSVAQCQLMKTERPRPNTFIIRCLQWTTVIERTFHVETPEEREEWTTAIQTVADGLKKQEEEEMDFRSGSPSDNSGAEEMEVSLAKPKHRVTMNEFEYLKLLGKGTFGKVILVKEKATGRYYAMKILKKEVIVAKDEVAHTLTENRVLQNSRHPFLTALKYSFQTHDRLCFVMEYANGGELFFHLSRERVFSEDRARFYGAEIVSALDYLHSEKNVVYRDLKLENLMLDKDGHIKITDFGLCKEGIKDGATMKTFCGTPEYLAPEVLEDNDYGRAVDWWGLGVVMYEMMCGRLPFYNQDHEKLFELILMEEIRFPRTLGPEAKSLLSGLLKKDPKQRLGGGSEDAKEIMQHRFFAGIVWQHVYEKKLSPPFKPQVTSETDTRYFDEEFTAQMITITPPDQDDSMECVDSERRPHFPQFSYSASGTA
T2 sequence (P31751 whole entry): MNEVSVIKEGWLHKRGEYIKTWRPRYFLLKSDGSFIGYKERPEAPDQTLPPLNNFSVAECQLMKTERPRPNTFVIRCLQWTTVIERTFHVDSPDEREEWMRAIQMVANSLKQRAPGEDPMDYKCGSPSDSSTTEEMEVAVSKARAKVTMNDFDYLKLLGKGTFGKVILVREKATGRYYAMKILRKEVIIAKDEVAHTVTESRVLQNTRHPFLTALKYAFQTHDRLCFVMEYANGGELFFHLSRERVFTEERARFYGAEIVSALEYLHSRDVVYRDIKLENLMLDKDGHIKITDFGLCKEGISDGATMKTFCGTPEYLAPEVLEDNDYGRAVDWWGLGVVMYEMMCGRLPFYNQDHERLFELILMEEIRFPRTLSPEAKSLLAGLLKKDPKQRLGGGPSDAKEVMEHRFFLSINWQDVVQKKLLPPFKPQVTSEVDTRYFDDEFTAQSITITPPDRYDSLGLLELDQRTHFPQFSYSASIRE

Take `Nc1ncccc1-c1nc2ccc(-n3cccn3)nc2n1-c1ccc2c(c1)CC[C@@H]2n1cc(-c2ccncc2)nn1` [Compound 198]: the 50% inhibitory concentration (IC50) (as a rule, the midpoint of a concentration-inhibition curve) was found to be 9.5 nM on AKT1 WT (setting [1]) and 113 nM on AKT2 (setting [1]).

As for `Nc1ncccc1-c1nc2ccc(C3CC3)nc2n1-c1ccc2c(c1)CC[C@@H]2NC(=O)c1ccc(C(F)F)nc1` [Compound 130], the half-maximal inhibitory concentration (IC50) at AKT1 WT (setting [1]) came to 46.4 nM; at AKT2 (setting [1]), 2290 nM.

Take `Nc1ncccc1-c1nc2ccc(-n3ccc(N4CC5CC(C4)O5)n3)nc2n1-c1ccc2c(c1)CC(F)[C@@H]2NC1CCN(C(=O)C2CC2)CC1` (stereo partly drawn) [Compound 552]: the IC50 was determined as 9.18 nM at AKT1 WT (setting [2]) and 166 nM at AKT2 (setting [2]).

As to `Nc1ncccc1-c1nc2ccc(-n3cccn3)nc2n1-c1ccc2c(c1)CC[C@@H]2NC(=O)c1ccnc(OC2CC2)c1` [Compound 201], the IC50 is 9.27 nM on AKT1 WT (setting [1]) and 66.5 nM on AKT2 (setting [1]).

With `Cc1ccc(C(=O)N[C@H]2CCc3cc(-n4c(-c5cccnc5N)nc5ccc(-c6nc(C(F)F)cs6)nc54)ccc32)cn1` [Compound 403], the IC50 on AKT1 WT (setting [2]) is 6.13 nM; on AKT2 (setting [2]), 20.1 nM.

Turning to `Nc1ncccc1-c1nc2ccc(-n3nccn3)nc2n1-c1ccc2c(c1)CC[C@@H]2NC(=O)c1cnc(C(F)F)c(F)c1` [Compound 121], the IC50 is 36.6 nM on AKT1 WT (setting [1]) and 1590 nM at AKT2 (setting [1]).

`Nc1ncccc1-c1nc2ccc(-n3cccn3)nc2n1-c1ccc2c(c1)CC[C@@H]2NC1CCN(C(=O)C(F)F)CC1` [Compound 475]: the half-maximal inhibitory concentration (IC50) worked out at 130 nM on AKT1 WT (setting [2]) and 2780 nM at AKT2 (setting [2]).

`Cc1coc(-c2ccc3nc(-c4cccnc4N)n(-c4ccc5c(c4)CC[C@@H]5n4ccnn4)c3n2)n1` [Compound 245, (S)-3-(3-(1-(1H-1,2,3-triazol-1-yl)-2,3-dihydro-1H-inden-5-yl)-5-(4-methyloxazol-2-yl)-3H-imidazo[4,5-b]pyridin-2-yl)pyridin-2-amine]: the half-inhibitory concentration (IC50) came to 41.8 nM on AKT1 WT (setting [1]) and 1960 nM at AKT2 (setting [1]).

As to `CC#Cc1ncccc1C(=O)N[C@H]1CCc2cc(-n3c(-c4cccnc4N)nc4ccc(-n5cccn5)nc43)ccc21` [Compound 211], the IC50 was 32.1 nM on AKT1 WT (setting [1]) and 824 nM at AKT2 (setting [1]).

Take `Nc1ncccc1-c1nc2ccc(-n3cccn3)nc2n1-c1ccc2c(c1)CC[C@@H]2NC(=O)c1ccc2ncnn2c1` [Compound 237]: the IC50 at AKT1 WT (setting [1]) was 7.29 nM; at AKT2 (setting [1]) it was 28.1 nM.

Take `Nc1ncccc1-c1nc2ccc(-n3cccn3)nc2n1-c1ccc2c(c1)CC[C@@H]2NC1Cc2cccnc2C1` (stereo partly drawn) [Compound 530]: the IC50 at AKT1 WT (setting [2]) is 21.2 nM; on AKT2 (setting [2]), 422 nM.

Take `CN1CCN(c2ccn(-c3ccc4nc(-c5cccnc5N)n(-c5ccc6c(c5)CC[C@@H]6NC5CCN(C(=O)C6CC6)CC5)c4n3)n2)CC1` [Compound 563]: the IC50 came to 1.83 nM at AKT1 WT (setting [2]) and 37.8 nM at AKT2 (setting [2]).

In the case of `Nc1ncccc1-c1nc2ccc(-n3cccn3)nc2n1-c1ccc2c(c1)CC[C@@H]2NC1CC2(CCCN(c3ccccn3)C2)C1` (stereo partly drawn) [Compound 467], the IC50 at AKT1 WT (setting [2]) was found to be 358 nM; on AKT2 (setting [2]) it was 3560 nM.

Take `CC(C)(O)c1cn([C@H]2CCc3cc(-n4c(-c5cccnc5N)nc5ccc(-n6cccn6)nc54)ccc32)nn1` [Compound 219]: the half-inhibitory concentration (IC50) on AKT1 WT (setting [1]) was determined as 119 nM; at AKT2 (setting [1]), 6640 nM.

Take `Nc1ncccc1-c1nc2ccc(-n3cccn3)nc2n1-c1ccc2c(c1)CC[C@@H]2NC1CCC2(CC1)CN(c1ccccn1)C2` [Compound 450]: the values for the IC50 on AKT1 WT (setting [2]) and on AKT2 (setting [2]) were 198 nM and 4470 nM, respectively.

With `Cc1ncc(F)cc1C(=O)N[C@H]1CCc2cc(-n3c(-c4cccnc4N)nc4ccc(-n5cccn5)nc43)ccc21` [Compound 159], the values for the 50% inhibitory concentration (IC50) at AKT1 WT (setting [1]) and on AKT2 (setting [1]) were 4.65 nM and 22.1 nM, respectively.

`CC(=O)Nc1ccc(C(=O)N[C@H]2CCc3cc(-n4c(-c5cccnc5N)nc5ccc(-n6cccn6)nc54)ccc32)cn1` [Compound 232]: the IC50 on AKT1 WT (setting [1]) is 13.5 nM; on AKT2 (setting [1]), 46.6 nM.

For the compound `Nc1ncccc1-c1nc2c(F)cc(-n3cccn3)nc2n1-c1ccc2c(c1)CC[C@@H]2NC(=O)c1ccc(C(F)F)nc1` [Compound 165, (S)—N-(5-(2-(2-aminopyridin-3-yl)-7-fluoro-5-(1H-pyrazol-1-yl)-3H-imidazo[4,5-b]pyridin-3-yl)-2,3-dihydro-1H-inden-1-yl)-6-(difluoromethyl)nicotinamide], the IC50 on AKT1 WT (setting [1]) is 11.6 nM; at AKT2 (setting [1]) it was 100 nM.

Take `Nc1ncccc1-c1nc2ccc(-n3cccn3)nc2n1-c1ccc2c(c1)CC[C@@H]2n1cc(C(F)F)nn1` [Compound 326]: the IC50 on AKT1 WT (setting [1]) was 18.2 nM; on AKT2 (setting [1]), 1320 nM.

For `Nc1ncccc1-c1nc2ccc(-n3cccn3)nc2n1-c1ccc2c(c1)CC[C@@H]2NC(=O)c1nccnc1C(F)F` [Compound 119], the results for the IC50 on AKT1 WT (setting [1]) and on AKT2 (setting [1]) were 90.8 nM and 3160 nM, respectively.

Turning to `CS(=O)(=O)Nc1ccc(C(=O)N[C@H]2CCc3cc(-n4c(-c5cccnc5N)nc5ccc(-n6cccn6)nc54)ccc32)cn1` [Compound 231], the figures for the half-maximal inhibitory concentration (IC50) at AKT1 WT (setting [1]) and at AKT2 (setting [1]) were 504 nM and 3870 nM, respectively.

Consider `Nc1ncccc1-c1nc2ccc(-n3nccn3)nc2n1-c1ccc2c(c1)CC[C@@H]2NC(=O)c1cc(F)c2[nH]ncc2c1` [Compound 383], for which the concentration for half-maximal inhibition (IC50) on AKT1 WT (setting [1]) is 12.8 nM; on AKT2 (setting [1]), 214 nM.

For `Nc1ncccc1-c1nc2ccc(-n3cccn3)nc2n1-c1ccc2c(c1)CC[C@@H]2NC(=O)c1cnc(C(F)F)s1` [Compound 376], the values for the 50% inhibitory concentration (IC50) on AKT1 WT (setting [1]) and on AKT2 (setting [1]) were 8.07 nM and 151 nM, respectively.

For `Cc1cccnc1C(=O)N[C@H]1CCc2cc(-n3c(-c4cccnc4N)nc4ccc(-n5cccn5)nc43)ccc21` [Compound 184], the IC50 at AKT1 WT (setting [1]) was determined as 114 nM; at AKT2 (setting [1]) it was 4740 nM.

In the case of `Cn1nccc1Cc1nncn1[C@H]1CCc2cc(-n3c(-c4cccnc4N)nc4ccc(-n5cccn5)nc43)ccc21` [Compound 222], the IC50 at AKT1 WT (setting [1]) is 146 nM; on AKT2 (setting [1]), 1400 nM.

Regarding `Nc1ncccc1-c1nc2ccc(-n3cccn3)nc2n1-c1ccc2c(c1)CC[C@@H]2NC1CCN(C(=O)C2CCC2)CC1` [Compound 422], the IC50 on AKT1 WT (setting [2]) stood at 67.9 nM; on AKT2 (setting [2]) it was 2080 nM.

Consider `Nc1ncccc1-c1nc2ccc(-n3ccc(N4CCS(=O)(=O)CC4)n3)nc2n1-c1ccc2c(c1)CC[C@@H]2NC1CCN(C(=O)C2CC2)CC1` [Compound 565], for which the IC50 at AKT1 WT (setting [2]) was determined as 9.86 nM; on AKT2 (setting [2]), 274 nM.

On to `Nc1ncccc1-c1nc2ccc(-c3ncco3)nc2n1-c1ccc2c(c1)CC[C@@H]2n1ccnn1` [Compound 246], for which the IC50 at AKT1 WT (setting [1]) is 65.5 nM; on AKT2 (setting [1]) it was 2370 nM.

For `COC1CCN(c2ccn(-c3ccc4nc(-c5cccnc5N)n(-c5ccc6c(c5)CC(F)[C@@H]6NC5CCN(C(=O)C6CC6)CC5)c4n3)n2)CC1` (stereo partly drawn) [Compound 546], the IC50 turned out to be 9.86 nM at AKT1 WT (setting [2]) and 221 nM on AKT2 (setting [2]).

On to `Nc1ncccc1-c1nc2ccc(C#CC3CCCC3)nc2n1-c1ccc2c(c1)CC[C@@H]2NC(=O)c1ccc(C(F)F)nc1` [Compound 460], for which the half-inhibitory concentration (IC50) at AKT1 WT (setting [2]) turned out to be 33.6 nM; at AKT2 (setting [2]) it was 6180 nM.

Take `Nc1ncccc1-c1nc2ccc(-n3cccn3)nc2n1-c1ccc2c(c1)CC[C@@H]2NC1CCc2nc(C(F)F)sc21` (stereo partly drawn) [Compound 600]: the IC50 on AKT1 WT (setting [2]) turned out to be 418 nM; at AKT2 (setting [2]) it was 7070 nM.

With `Nc1ncccc1-c1nc2ccc(-n3cccn3)nc2n1-c1ccc2c(c1)CC[C@@H]2n1ccnn1` [Compound 188], the IC50 is 20 nM at AKT1 WT (setting [1]) and 650 nM at AKT2 (setting [1]).

Consider `Nc1ncccc1-c1nc2ccc(-n3cccn3)nc2n1-c1ccc2c(c1)CC[C@@H]2n1ccc(=O)cc1` [Compound 83, (S)-1-(5-(2-(2-aminopyridin-3-yl)-5-(1H-pyrazol-1-yl)-3H-imidazo[4,5-b]pyridin-3-yl)-2,3-dihydro-1H-inden-1-yl)pyridin-4(1H)-one], for which the IC50 is 139 nM on AKT1 WT (setting [1]) and 867 nM at AKT2 (setting [1]).

In the case of `Cn1ccc(-c2cn([C@H]3CCc4cc(-n5c(-c6cccnc6N)nc6ccc(-n7cccn7)nc65)ccc43)nn2)n1` [Compound 197], the IC50 on AKT1 WT (setting [1]) amounted to 14.7 nM; at AKT2 (setting [1]) it was 95.3 nM.

Consider `Nc1ncccc1-c1nc2ccc(-n3cccn3)nc2n1-c1ccc2c(c1)CC(F)[C@@H]2NC1CN(c2ccccn2)C1` (stereo partly drawn) [Compound 208], for which the 50% inhibitory concentration (IC50) is 32.4 nM at AKT1 WT (setting [1]) and 1030 nM on AKT2 (setting [1]).

For `Nc1ncccc1-c1nc2ccc(-n3cccn3)nc2n1-c1ccc2c(c1)CC[C@@H]2n1cc(C2CNC2)nn1` [Compound 250], the values for the IC50 at AKT1 WT (setting [1]) and on AKT2 (setting [1]) were above 1000 nM and above 10000 nM, respectively.

In the case of `Cc1nccnc1C(=O)N[C@H]1CCc2cc(-n3c(-c4cccnc4N)nc4ccc(-c5cnn(C)n5)nc43)ccc21` [Compound 271], the half-inhibitory concentration (IC50) on AKT1 WT (setting [1]) is 285 nM; at AKT2 (setting [1]), above 10000 nM.

Take `Cc1ncccc1C(=O)N[C@H]1CCc2cc(-n3c(-c4cccnc4N)nc4c(C(F)F)cc(-n5cccn5)nc43)ccc21` [Compound 213]: the values for the 50% inhibitory concentration (IC50) on AKT1 WT (setting [1]) and at AKT2 (setting [1]) were 13.8 nM and 60.6 nM, respectively.

As for `Nc1ncccc1-c1nc2ccc(-c3ccn(C(F)F)n3)nc2n1-c1ccc2c(c1)CC[C@@H]2NC(=O)c1ccc(C(F)F)nc1` [Compound 74], the IC50 stood at 4.94 nM on AKT1 WT (setting [1]) and 34.8 nM on AKT2 (setting [1]).

On to `Cn1ccc(C#Cc2ncccc2C(=O)N[C@H]2CCc3cc(-n4c(-c5cccnc5N)nc5ccc(-n6cccn6)nc54)ccc32)n1` [Compound 181], for which the IC50 at AKT1 WT (setting [1]) was determined as 78.4 nM; on AKT2 (setting [1]), 3680 nM.

Take `Cc1ccc(C(=O)N[C@H]2CCc3cc(-n4c(-c5cccnc5N)nc5c(C#N)cc(-n6nccn6)nc54)ccc32)cn1` [Compound 547]: the IC50 at AKT1 WT (setting [2]) is 28.3 nM; on AKT2 (setting [2]), 1740 nM.

As to `Cc1cc2c(=O)n([C@H]3CCc4cc(-n5c(-c6cccnc6N)nc6ccc(-n7cccn7)nc65)ccc43)cnc2cn1` [Compound 81, (S)-3-(5-(2-(2-aminopyridin-3-yl)-5-(1H-pyrazol-1-yl)-3H-imidazo[4,5-b]pyridin-3-yl)-2,3-dihydro-1H-inden-1-yl)-6-methylpyrido[3,4-d]pyrimidin-4(3H)-one], the half-maximal inhibitory concentration (IC50) at AKT1 WT (setting [1]) worked out at 121 nM; at AKT2 (setting [1]), 2900 nM.
